Patent US9884849B2, “Fluorinated benzofuranyl-pyrimidine derivatives containing a sulfoximine group” (Bayer Pharma Aktiengesellschaft, priority 2014, dated 2018)
Where two headings read alike, the source gives them in different places.

Key:
Type in all cases: cell-based, human
[1] = tested on: A2780 cells; assay: Proliferation assay A2780 (Method 3); conditions: A2780, 4 days, crystal violet, read-out: Inhibition of A2780 cell proliferation IC50
Procedure: (§1) Cultivated tumour cells (HeLa, human cervical tumour cells, ATCC CCL-2; NCI-H460, human non-small cell lung carcinoma cells, ATCC HTB-177; A2780, human ovarian carcinoma cells, ECACC #93112519; DU 145, hormone-independent human prostate carcinoma cells, ATCC HTB-81; HeLa-MaTu-ADR, multidrug-resistant human cervical carcinoma cells, EPO-GmbH Berlin; Caco-2, human colorectal carcinoma cells, ATCC HTB-37; B16F10, mouse melanoma cells, ATCC CRL-6475) were plated at a density of 5,000 cells/well (DU145, HeLa-MaTu-ADR), 3,000 cells/well (NCI-H460, HeLa), 2,500 cells/well (A2780), 1,500 cells/well (Caco-2), or 1,000 cells/well (B16F10) in a 96-well multititer plate in 200 μL of their respective growth medium supplemented 10% fetal calf serum. After 24 hours, the cells of one plate (zero-point plate) were stained with crystal violet (see below), while the medium of the other plates was replaced by fresh culture medium (200 μl), to which the test substances were added in various concentrations (0 μM, as well as in the range of 0.001-10 μM; the final concentration of the solvent dimethyl sulfoxide was 0.5%). The cells were incubated for 4 days in the presence of test substances. Cell proliferation was determined by staining the cells with crystal violet: the cells were fixed by adding 20 μl/measuring point of an 11% glutaric aldehyde solution for 15 minutes at room temperature. After three washing cycles of the fixed cells with water, the plates were dried at room temperature. The cells were stained by adding 100 μl/measuring point of a 0.1% crystal violet solution (pH 3.0). After three washing cycles of the stained cells with water, the plates were dried at room temperature. The dye was dissolved by adding 100 μl/measuring point of a 10% acetic acid solution. The extinction was determined by photometry at a wavelength of 595 nm. The change of cell number, in percent, was calculated by normalization of the measured values to the extinction values of the zero-point plate (=0%) and the extinction of the untreated (0 μm) cells (=100%). The IC50 values (inhibitory concentration at 50% of maximal effect) were determined by means of a 4 parameter fit.

[2] = tested on: HeLa-MaTu-ADR cells; assay: Proliferation assay HeLa-MaTu-ADR (Method 3); conditions: 4 days, crystal violet, read-out: Inhibition of HeLa-MaTu-ADR cell proliferation IC50
Procedure: as §1

[3] = tested on: HeLa cells; assay: Proliferation assay HeLa (Method 3); conditions: 4 days, crystal violet, read-out: Inhibition of HeLa cell proliferation IC50
Procedure: as §1

IC50 ([1]; Homo sapiens, A2780, 96 h) [nM]	IC50 ([2]; Homo sapiens, 96 h) [nM]	IC50 [3] [nM]	IC50 [1] [nM]	IC50 [2] [nM]	IC50 ([3]; Homo sapiens, 96 h) [nM]	Structure (SMILES)
37	35	89	–	–	–	CS(=O)(Cc1cc(F)cc(Nc2ncc(F)c(-c3ccc(F)c4ccoc34)n2)c1)=NC#N (single isomer, unassigned) [Example 8, [(3-Fluoro-5-{[5-fluoro-4-(4-fluoro-1-benzofuran-7-yl)pyrimidin-2-yl]amino}benzyl)(methyl)-oxido-λ^6-sulfanylidene]cyanamide]
–	–	31	19	42	–	CS(=O)(Cc1cc(F)cc(Nc2ncc(F)c(-c3ccc(F)c4ccoc34)n2)c1)=NC#N (single isomer, unassigned) [Example 9, [(3-Fluoro-5-{[5-fluoro-4-(4-fluoro-1-benzofuran-7-yl)pyrimidin-2-yl]amino}benzyl)(methyl)-oxido-λ^6-sulfanylidene]cyanamide]
32	–	–	–	200	31	CS(=N)(=O)Cc1cc(F)cc(Nc2ncc(F)c(-c3ccc(F)c4ccoc34)n2)c1 (single isomer, unassigned) [Example 11, 5-Fluoro-4-(4-fluoro-1-benzofuran-7-yl)-N-{3-fluoro-5-[(S-methylsulfonimidoyl)-methyl]-phenyl}-pyrimidin-2-amine]
35	41	–	–	–	46	Cc1cc(CS(C)(=N)=O)cc(Nc2ncc(F)c(-c3ccc(F)c4ccoc34)n2)c1 (racemic) [Example 16, (rac)-5-Fluoro-4-(4-fluoro-1-benzofuran-7-yl)-N-{3-methyl-5-[(S-methylsulfonimidoyl)-methyl]phenyl}pyrimidin-2-amine]
23	60	–	–	–	50	CS(=O)(Cc1cc(F)cc(Nc2ncc(F)c(-c3ccc(F)c4ccoc34)n2)c1)=NC#N (racemic) [Example 7, (rac)-[(3-Fluoro-5-{[5-fluoro-4-(4-fluoro-1-benzofuran-7-yl)pyrimidin-2-yl]amino}benzyl)(methyl)-oxido-λ^6-sulfanylidene]cyanamide]
37	–	–	–	–	97	CS(=N)(=O)Cc1cc(F)cc(Nc2ncc(F)c(-c3ccc(F)c4ccoc34)n2)c1 (racemic) [Example 10, (rac)-5-Fluoro-4-(4-fluoro-1-benzofuran-7-yl)-N-{3-fluoro-5-[(S-methylsulfonimidoyl)-methyl]-phenyl}-pyrimidin-2-amine]
–	–	30	35	88	–	CS(=N)(=O)Cc1cc(F)cc(Nc2ncc(F)c(-c3ccc(F)c4ccoc34)n2)c1 (single isomer, unassigned) [Example 12, 5-Fluoro-4-(4-fluoro-1-benzofuran-7-yl)-N-{3-fluoro-5-[(S-methylsulfonimidoyl)-methyl]-phenyl}-pyrimidin-2-amine]
46	134	–	–	–	104	CS(=O)(Cc1cccc(Nc2ncc(F)c(-c3ccc(F)c4ccoc34)n2)c1)=NC#N (racemic) [Example 1, (rac)-[(3-{[5-Fluoro-4-(4-fluoro-1-benzofuran-7-yl)pyrimidin-2-yl]amino}benzyl)(methyl)oxido-λ^6-sulfanylidene]cyanamide]
–	190	–	93	–	177	CS(=N)(=O)Cc1cccc(Nc2ncc(F)c(-c3ccc(F)c4ccoc34)n2)c1 (single isomer, unassigned) [Example 5, 5-Fluoro-4-(4-fluoro-1-benzofuran-7-yl)-N-{3-[(S-methylsulfonimidoyl)-methyl]-phenyl}-pyrimidin-2-amine]
98	98	–	–	–	99	CS(=O)(Cc1cc(Nc2ncc(F)c(-c3ccc(F)c4ccoc34)n2)cc(S(F)(F)(F)(F)F)c1)=NC#N (racemic) [Example 17, (rac)-{[3-{[5-fluoro-4-(4-fluoro-1-benzofuran-7-yl)pyrimidin-2-yl]amino}-5-(pentafluoro-λ^6-sulfanyl)benzyl](methyl)oxido-λ^6-sulfanylidene}cyanamide]
34	116	–	–	–	101	CS(=N)(=O)Cc1cc(Nc2ncc(F)c(-c3ccc(F)c4ccoc34)n2)cc(S(F)(F)(F)(F)F)c1 (racemic) [Example 18, (rac)-5-Fluoro-4-(4-fluoro-1-benzofuran-7-yl)-N-{3-[(S-methylsulfonimidoyl)methyl]-5-(pentafluoro-λ^6-sulfanyl)phenyl}pyrimidin-2-amine]
67	118	–	–	–	109	CS(=O)(Cc1cccc(Nc2ncc(F)c(-c3ccc(F)c4ccoc34)n2)c1)=NC#N (single isomer, unassigned) [Example 3, [(3-{[5-Fluoro-4-(4-fluoro-1-benzofuran-7-yl)pyrimidin-2-yl]amino}benzyl)(methyl)oxido-λ^6-sulfanylidene]cyanamide]
–	–	100	55	87	–	CS(=O)(Cc1cccc(Nc2ncc(F)c(-c3ccc(F)c4ccoc34)n2)c1)=NC#N (single isomer, unassigned) [Example 2, [(3-{[5-Fluoro-4-(4-fluoro-1-benzofuran-7-yl)pyrimidin-2-yl]amino}benzyl)(methyl)oxido-λ^6-sulfanylidene]cyanamide]
45	57	–	–	–	96	Cc1cc(CS(C)(=O)=NC#N)cc(Nc2ncc(F)c(-c3ccc(F)c4ccoc34)n2)c1 (single isomer, unassigned) [Example 14, [(3-{[5-Fluoro-4-(4-fluoro-1-benzofuran-7-yl)pyrimidin-2-yl]amino}-5-methylbenzyl)-(methyl)oxido-λ^6-sulfanylidene]cyanamide]
–	–	107	63	110	–	Cc1cc(CS(C)(=O)=NC#N)cc(Nc2ncc(F)c(-c3ccc(F)c4ccoc34)n2)c1 (single isomer, unassigned) [Example 15, [(3-{[5-Fluoro-4-(4-fluoro-1-benzofuran-7-yl)pyrimidin-2-yl]amino}-5-methylbenzyl)-(methyl)oxido-λ^6-sulfanylidene]cyanamide]
34	37	–	–	–	40	Cc1cc(CS(C)(=O)=NC#N)cc(Nc2ncc(F)c(-c3ccc(F)c4ccoc34)n2)c1 (racemic) [Example 13, (rac)-[(3-{[5-Fluoro-4-(4-fluoro-1-benzofuran-7-yl)pyrimidin-2-yl]amino}-5-methylbenzyl)-(methyl)oxido-λ^6-sulfanylidene]cyanamide]
